Source: patent EP2325185A1, “Plk inhibitor” (GPC Biotech AG, priority 2009, dated 2011)
Where two headings read alike, the source gives them in different places.

How the values were obtained:
SK-MEL-28 = experiment: SRB cell proliferation assay, SK-MEL-28; assay type: cell-based; conditions: Homo sapiens; SK-MEL-28 (melanoma); compound 1 tested in racemic mixture
Experimental: (§1) Cells were exposed to the test compound racemate at various concentrations appropriate to determine an IC50 for 72 hours. Cell proliferation was measured using the SRB assay according to Shekan et al (J Natl Cancer Inst (1990) 82, 1107-112) in order to estimate the IC50 values shown in Table 3. Briefly, cells were plated in 96 well dishes 24 hours prior to compound addition at the densities specified in Table 5.1. The assay was terminated with the addition of cold TCA to a final concentration of 10% after growth medium has been removed and the plates were incubated over night at 4°C. The plates were then washed 5 times with water and 100µl of a Sulforhodamine B solution ([…]) was added to each well. The plates were then incubated for 10 minutes at room temperature before removal of unbound dye by washing with 1% acetic acid. The bound dye was solubilised with 10 mM Trizma base and the absorbance read at OD520.
(§2) Inhibitory activity of the compound (IC) was calculated as % inhibition of cell proliferation compared to cells treated with the solvent (DMSO).
(§3) Table 8.1: 18-Cell Line Panel

COLO 205 = experiment: SRB cell proliferation assay, COLO 205; assay type: cell-based; conditions: Homo sapiens; COLO 205 (colon); compound 1 tested in racemic mixture
Experimental: as §1, §2, §3

MDA-MB-231 = experiment: SRB cell proliferation assay, MDA-MB-231; assay type: cell-based; conditions: Homo sapiens; MDA-MB-231 (breast); compound 1 tested in racemic mixture
Experimental: as §1, §2, §3

HCT 116 = experiment: SRB cell proliferation assay, HCT 116; assay type: cell-based; conditions: Homo sapiens; HCT 116 (colon); compound 1 tested in racemic mixture; read-out: IC50
Experimental: as §1, §2, §3

NCI-H460 = experiment: SRB cell proliferation assay, NCI-H460; assay type: cell-based; conditions: Homo sapiens; NCI-H460 (NSCLC); compound 1 tested in racemic mixture
Experimental: as §1, §2, §3

A-431 = experiment: SRB cell proliferation assay, A-431; assay type: cell-based; conditions: Homo sapiens; A-431 (skin); compound 1 tested in racemic mixture
Experimental: as §1, §2, §3

SW620 = experiment: SRB cell proliferation assay, SW620; assay type: cell-based; conditions: Homo sapiens, SW-620; SW620 (colon); compound 1 tested in racemic mixture
Experimental: as §1, §2, §3

ACHN = experiment: SRB cell proliferation assay, ACHN; assay type: cell-based; conditions: Homo sapiens; ACHN (kidney); compound 1 tested in racemic mixture
Experimental: as §1, §2, §3

PC-3 = experiment: SRB cell proliferation assay, PC-3; assay type: cell-based; conditions: Homo sapiens; PC-3 (prostate); compound 1 tested in racemic mixture
Experimental: as §1, §2, §3

A-375 = experiment: SRB cell proliferation assay, A-375; assay type: cell-based; conditions: Homo sapiens; A-375 (melanoma); compound 1 tested in racemic mixture
Experimental: as §1, §2, §3

OVCAR-3 = experiment: SRB cell proliferation assay, OVCAR-3; assay type: cell-based; conditions: Homo sapiens; OVCAR-3 (ovary); compound 1 tested in racemic mixture
Experimental: as §1, §2, §3

MDA-MB-468 = experiment: SRB cell proliferation assay, MDA-MB-468; assay type: cell-based; conditions: MDA-MB-468 (breast), compound 1 tested in racemic mixture
Experimental: as §1, §2, §3

HeLa = experiment: SRB cell proliferation assay, HeLa; assay type: cell-based; conditions: Homo sapiens; HeLa (cervix); compound 1 tested in racemic mixture
Experimental: as §1, §2, §3

DU 145 = experiment: SRB cell proliferation assay, DU 145; assay type: cell-based; conditions: Homo sapiens; DU 145 (prostate); compound 1 tested in racemic mixture
Experimental: as §1, §2, §3

HT-29 = experiment: SRB cell proliferation assay, HT-29; assay type: cell-based; conditions: Homo sapiens; HT-29 (colon); compound 1 tested in racemic mixture; read-out: IC50
Experimental: as §1, §2, §3

IMR-90 = experiment: SRB cell proliferation assay, IMR-90; assay type: cell-based; conditions: Homo sapiens; IMR-90 (lung); compound 1 tested in racemic mixture; read-out: IC50
Experimental: as §1, §2, §3

SK-MEL-5 = experiment: SRB cell proliferation assay, SK-MEL-5; assay type: cell-based; conditions: Homo sapiens; SK-MEL-5 (melanoma); compound 1 tested in racemic mixture
Experimental: as §1, §2, §3

A549 = experiment: SRB cell proliferation assay, A549; assay type: cell-based; conditions: Homo sapiens; A549 (lung); compound 1 tested in racemic mixture
Experimental: as §1, §2, §3

Plk1 = Plk1 (Homo sapiens, UniProt P53350); experiment: Standard selectivity panel (ProQinase), Plk1; assay type: biochemical; design: purchased ProQinase GmbH, Freiburg, Germany; conditions: duplicates, read-out: inhibited Plk1
Sequence of Plk1 (P53350 whole entry, species assumed): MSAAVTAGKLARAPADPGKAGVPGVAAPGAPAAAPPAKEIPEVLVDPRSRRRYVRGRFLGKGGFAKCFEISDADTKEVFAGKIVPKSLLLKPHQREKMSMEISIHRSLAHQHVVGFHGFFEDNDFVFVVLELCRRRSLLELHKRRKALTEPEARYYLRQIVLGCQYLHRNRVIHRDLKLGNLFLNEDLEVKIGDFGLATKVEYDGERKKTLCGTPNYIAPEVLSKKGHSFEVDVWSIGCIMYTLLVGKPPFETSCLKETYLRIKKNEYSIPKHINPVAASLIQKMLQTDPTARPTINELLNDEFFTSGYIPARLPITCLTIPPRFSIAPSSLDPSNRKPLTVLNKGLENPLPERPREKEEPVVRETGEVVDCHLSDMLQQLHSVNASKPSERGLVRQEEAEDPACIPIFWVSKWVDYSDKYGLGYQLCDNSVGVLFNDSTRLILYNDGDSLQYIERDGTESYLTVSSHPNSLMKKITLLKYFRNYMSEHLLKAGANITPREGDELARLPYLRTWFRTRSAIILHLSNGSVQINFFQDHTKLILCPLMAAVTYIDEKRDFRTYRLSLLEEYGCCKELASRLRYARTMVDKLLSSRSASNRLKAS
Experimental: (§4) The compound of the present invention was tested in a standard selectivity panel including Plkl and 255 other kinases (ProQinase GmbH, Freiburg, Germany), under conditions of non-disclosure, non-dissemination and non-use.
(§5) In brief, compound 1 (see Table 1) was tested at 1 µM in duplicates against Plk1 as well as against 255 other protein kinases, including Abl, Aktl, Aur A, Kit, Raf-1, Cdkl/CycB1, Chk1, FGF-R3, Flt3, Fyn, IGF1-R, INS-R, Lyn, p38a, PAK4, PKCalpha, Ret, ROCK2, Src, TIE2, and VEGF-R2. The test compound 1 inhibited Plk1 by more than about 90%, only three other kinases were inhibited by between about 50% and about 90%, about 13 kinases by between about 10% and about 50%, and all other kinases were inhibited by less than about 10%.

NCI-H460 tumor cells = experiment: Mouse xenograft model using human NCI-H460 cells; assay type: in vivo; conditions: for mean body weight / mean body weight change: end of day four after begin of treatment; for mice died: mouse, in vivo
Experimental: […]. Human HT-29 cells (ATCC) colon carcinoma cell line are cultured in McCoy's medium (ATCC) supplied with 10% FCS and 1% Pen/Strep. The 2nd passage of cells with approximately 80% confluence is used in the study. Briefly, on Day 0, mice are inoculated with 0.1 ml (total 5x10^6 cells) of HT-29 cell suspension (50x10^6 cells/ml in McCoy's medium without supplements mixed 1:1 with Matrigel) by a subcutaneous injection into the lower right flank under light anesthesia. When the average tumor weights reaches above 100mg, animals with an appropriate tumor size are selected and are randomly divided into treatment groups (10 animals each).
Tumor growth and body weight are monitored and recorded twice a week. Tumors are measured by determining the length and width of the tumor with a digital caliper. Tumor weight is estimated using the following formula: Tumor Weight (mg) = (w^2 x 1) / 2 where w = width and I = length in mm of the tumor.
Toxic deaths are defined as deaths caused by compound treatment and not by advanced disease state. […].
In a model similar to the one described in a), mice were inoculated with NCI-H460 tumor cells, and treated (9 mice for each treatment group) with either vehicle only (NMP:PEG300), compound 1 (70 mg/kg once per week), compound 1 (35 mg/kg twice per week), BI 6727 (70 mg/kg once per week) and gemcitabine (25 mg/kg, once per week) (vivoPharm Europe Limited, Munich, Germany). At the end of day four after begin of treatment, the mean body weight for the compound 1 treatment groups had dropped from 20.5 g to 19.2 g (~5%; standard deviation 2.6 g), and from 20.1 g to 19.3 g (-4%; standard deviation 0.9 g), respectively, and one mouse in the high-dose treatment group had died. In contrast, in the BI 6727 treatment group, the mean body weight had dropped from 20.2 g to 16.2 g (-20%; standard deviation 1.5 g), five mice had died and the remaining mice had to be killed for ethical reasons.

[1] = system: 255 other protein kinases; experiment: Standard selectivity panel (ProQinase), 255 other kinases; assay type: biochemical; conditions: 1 µM, duplicates; all other kinases
Experimental: as §4, §5

[2] = system: panel of 57 tumor cell lines; experiment: Panel of 57 tumor cell lines (OncoLead), growth inhibition; assay type: cell-based
Experimental: In a similar experiment, the inhibitory activity of compound 1 was tested against a panel of 57 tumor cell lines (OncoLead GmbH&Co.KG, Martinsried, Germany) under conditions of non-disclosure, non-dissemination and non-use.
In 18 cell lines, the GI50 value was between 1 µM and 0.1 µM, and in 31 cell lines, the GI50 value was below 0.1 µM.

| SMILES | IC50 (SK-MEL-28) [µM] | IC50 (COLO 205) [µM] | IC50 (MDA-MB-231) [µM] | IC50 (HCT 116) [µM] | IC50 (NCI-H460) [µM] | IC50 (A-431) [µM] | IC50 (SW620) [µM] | IC50 (ACHN) [µM] | IC50 (PC-3) [µM] | IC50 (A-375) [µM] | IC50 (OVCAR-3) [µM] | IC50 (HeLa) [µM] | IC50 (DU 145) [µM] | IC50 (HT-29) [µM] | IC50 (IMR-90) [µM] | IC50 (SK-MEL-5) [µM] | IC50 (A549) [µM] | mean body weight (NCI-H460 tumor cells; 70 mg/kg once per week) [g] | mean body weight change (NCI-H460 tumor cells; 70 mg/kg once per week) | mice died (NCI-H460 tumor cells) | further results |
| --- | --- | --- | --- | --- | --- | --- | --- | --- | --- | --- | --- | --- | --- | --- | --- | --- | --- | --- | --- | --- | --- |
| CC[C@@H]1C(=O)N(C)c2cnc(Nc3ccc(C(=O)NC4CCN(C)CC4)cc3OC)nc2N1C1CCCC1 [BI 2536, reference compound] | < 1 | < 1 | < 1 | < 1 | < 1 | < 1 | < 1 | < 1 | < 1 | < 1 | < 1 | < 1 | < 1 | < 1 | > 1 | < 1 | < 1 | – | – | – | IC50 (MDA-MB-468): plateau at ∼50% |
| CC[C@@H]1C(=O)N(C)c2cnc(Nc3ccc(C(=O)N[C@H]4CC[C@H](N5CCN(CC6CC6)CC5)CC4)cc3OC)nc2N1N(C)C [Compound 1, (7R)-N-[trans-4-(4-Cyclopropylmethyl-piperazin-1-yl)-cyclohexyl]-4-(8-dimethylamino-7-ethyl-5-methyl-6-oxo-5,6,7,8-tetrahydro-pteridin-2-ylamino)-3-methoxy-benzamide] | > 1 | < 1 | < 1 | < 1 | < 1 | < 1 | < 1 | < 1 | < 1 | < 1 | < 1 | < 1 | < 1 | < 1 | > 1 | < 1 | < 1 | 19.2 | ~ 5% | one | inhibition at 1 µM (Plk1): > 90%; mean body weight (NCI-H460 tumor cells; 35 mg/kg twice per week): 19.3 g; mean body weight change (NCI-H460 tumor cells; 35 mg/kg twice per week): -4%; tumor growth (NCI-H460 tumor cells; 70 mg/kg once per week and 35 mg/kg twice per week, compared with vehicle only or gemcitabine groups): a reduction of tumor growth could be observed; IC50 (MDA-MB-468; Homo sapiens, read-out: IC50): > 1 µM; kinases inhibited [1]: less than 10%; GI50 ([2]; in 18 cell lines of 57): 0.1 to 1 µM; GI50 ([2]; in 31 cell lines of 57): < 0.1 µM; GI50 ([2]; in about 49 cell lines of 57): < 1 µM |
| CC[C@@H]1C(=O)N(C)c2cnc(Nc3ccc(C(=O)N[C@H]4CC[C@H](N5CCN(CC6CC6)CC5)CC4)cc3OC)nc2N1C(C)C [BI 6727, reference compound] | – | – | – | – | – | – | – | – | – | – | – | – | – | – | – | – | – | 16.2 | -20% | five | – |
